Measurements reported in US5686486A, “4-hydroxy-benzopyran-2-ones and 4-hydroxy-cycloalkyl[b]pyran-2-ones useful to treat retroviral infections” (priority 1995, dated 1997).
“And” between values parts separate entries of the source, which are not always exact repeats. Equal values may be shown once. Square brackets hold non-standard residues; d marks the D form. Peptide text beside a SMILES is read from it. * marks the point of attachment. Sta = CC(C)C[C@H](N)[C@@H](O)CC(=O)O; Isovaleryl = CC(C)CC(=O)*

How the values were obtained:
HIV = conditions: cited from earlier work
HIV-1 = conditions: single dose; cited from earlier work
[1] = test system: p55 Processing in vVk-1 infected CV-1 Cells; assay: CV-1 Cell Assay: inhibition of p55 processing in vVK-1 infected CV-1 cells (p24 levels); type: cell-based; conditions: Cercopithecidae, CV-1, read-out: CV-1 Cell Assay % Inhib
Method: Inhibition of p55 Processing in vVk-1 infected CV-1 Cells. CV-1 cells are seeded at 2×10^5 cells per well in 24-well Costar dishes and infected 4 to 6 hours later with vVK-1 at 5 plaque-forming units (PFU) per cell. Each compound is dissolved in Dulbecco's Modified Eagles medium (DMEM) containing 2.5% fetal bovine serum and is added to duplicate wells at the indicated final concentration 2 hours after virus addition. After 24 hours, the culture medium is removed and the monolayer washed with 1 mL of phosphate buffered saline (PBS), and the cells lysed by the addition of 0.1 mL of loading buffer (62.5 mM Tris (hydroxymethyl) aminomethane (Tris), pH 6.8, 2.3% sodium dodecyl sulfate (SDS), 5% β-mercaptoethanol, and 10% glycerol). The cell lysates are collected individually, placed in boiling water for 3 minutes, and then 0.025 mL of each sample is subjected to electrophoresis on 12% SDS-polyacrylamide gels. The proteins are electroblotted onto nitrocellulose and analyzed by protein immunoblotting. The primary antibodies are sheep antibody to p24 (International Enzyme, Inc., Fallbrook, Calif.) and the secondary antibody is alkaline-phosphatase-conjugated rabbit antibody to sheep immunoglobulin G (Kirkegaard & Perry Laboratories, Gaithersburg, Md.). The levels of immunoreactive proteins are quantified by densitometry (Bio-Rad, Model 260) with the accompanying 1-D Analyst Software. Inhibition refers to the mean percent decrease in p24 levels determined from the duplicate drug-treated samples compared to the nondrug-treated controls. […] Val-Ile-Amp (also known as N-[1-(cyclohexylmethyl)-2,3-dihydroxy-5-methyl-4-[[[2-methyl-1-[[(2-pyridinylmethyl)amino]carbonyl]butyl]-amino]carbonyl]hexyl]-α-[[(1-naphthalenyloxy)acetyl]amino]-, [1S-[1R*(R*),2S*,3S*,4S*(1R*,2R*)]]-1H-imidazole-4-propanamide) (which was disclosed in International Publication Number WO 87/05302, published 11 Sep. 1987) was also determined in each experiment.

HIV-1 protease [2] = molecular target: T1, HIV-1 protease (Human immunodeficiency virus type 1 group M subtype B, UniProt P04585); assay: biochemical; conditions: for IC50: HIV-1 Protease IC50; for inhibition at 0.098 µM: read-out: HIV-1 Protease % Inhib, dose 0.098 uM; for inhibition at 0.78 µM: read-out: HIV-1 Protease % Inhib, dose 0.780 uM; for inhibition at 1.56 µM: read-out: HIV-1 Protease % Inhib, dose 1.560 uM; for inhibition at 12.5 µM: read-out: HIV-1 Protease % Inhib, dose 12.500 uM; for inhibition at 25 µM: read-out: HIV-1 Protease % Inhib, dose 25.000 uM; for inhibition at 50 µM: read-out: HIV-1 Protease % Inhib, dose 50.000 uM; for inhibition at 100 µM: read-out: HIV-1 Protease % Inhib, dose 100.000 uM; for inhibition at 0.37 µM: read-out: HIV-1 Protease % Inhib, dose 0.370 uM; for inhibition at 1.1 µM: read-out: HIV-1 Protease % Inhib, dose 1.100 uM; for inhibition at 3.3 µM: read-out: HIV-1 Protease % Inhib, dose 3.300 uM; for inhibition at 10 µM: read-out: HIV-1 Protease % Inhib, dose 10.000 uM; for inhibition at 30 µM: read-out: HIV-1 Protease % Inhib, dose 30.000 uM; for inhibition at 0.123 µM: read-out: HIV-1 Protease % Inhib, dose 0.123 uM
How it was run: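 Biotinylated, FITC-labeled peptide substrate (20 μl of 0.2 μM) incubated with HIV-1 protease (10 μl of 0.1 μM) and compound in 0.1 M sodium acetate pH 5.5, 1.0 M NaCl, 0.05% NP-40, 1 h, room temperature, dark. Streptavidin beads then capture uncleaved substrate; filtered labeled product read by fluorescence, giving percent inhibition.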

HIV protease = conditions: cited from earlier work
HIV-1 protease [3] = molecular target: T1, HIV-1 protease; assay: biochemical; conditions: read-out: HIV-1 FITC KI
How it was run: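 Ki from two-fold serial inhibitor dilutions (24–48 concentrations) with 40 nM HIV-1 protease stock and 200 μM substrate stock, 90 min at room temperature; stopped with avidin beads. Reference inhibitor run in parallel; Ki by nonlinear least-squares fit.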

SMILES	Ki (HIV-1 protease [3])	inhibition at 0.37 µM (HIV-1 protease [2])	inhibition at 1.1 µM (HIV-1 protease [2])	inhibition at 3.3 µM (HIV-1 protease [2])	inhibition at 10 µM (HIV-1 protease [2])	inhibition at 30 µM (HIV-1 protease [2])	inhibition at 0.123 µM (HIV-1 protease [2])	further results
Nc1ccn([C@H]2CC[C@@H](CO)O2)c(=O)n1 [ddC]								limiting toxicity (HIV; humans): peripheral neuropathy which is reversible at low doses
O=c1[nH]cnc2c1ncn2[C@H]1CC[C@@H](CO)O1 [ddI]								effect on liver (HIV; human, in vivo): stimulate hepatic glycolysis leading to irreversible liver damage; limiting toxicity (HIV; humans): peripheral neuropathy and pancreatitis
O=c1ccc2ccc(O)cc2o1 [umbelliferone]								effect on HIV-1 replication and viral transmission (HIV-1): inhibitory effect
CCCCC(c1ccccc1)c1c(O)c2ccccc2oc1=O (stereo not shown) [Example 11, 4-Hydroxy-3-(1-phenylpentyl)-coumarin]								inhibition at 100 µM [1]: 64%; inhibition at 300 µM [1]: 78%; IC50 (HIV-1 protease [2]): 1890 nM; inhibition at 0.098 µM (HIV-1 protease [2]): < 10%; inhibition at 0.195 µM (HIV-1 protease [2]; read-out: HIV-1 Protease % Inhib, dose 0.195 uM): < 10%; inhibition at 0.39 µM (HIV-1 protease [2]; read-out: HIV-1 Protease % Inhib, dose 0.390 uM): 19.2%; inhibition at 0.78 µM (HIV-1 protease [2]): 27.1%; inhibition at 1.56 µM (HIV-1 protease [2]): 58.1%; inhibition at 3.13 µM (HIV-1 protease [2]; read-out: HIV-1 Protease % Inhib, dose 3.130 uM): 63.1%; inhibition at 6.25 µM (HIV-1 protease [2]; read-out: HIV-1 Protease % Inhib, dose 6.250 uM): 70.4%; inhibition at 12.5 µM (HIV-1 protease [2]): 82%; inhibition at 25 µM (HIV-1 protease [2]): 95.8%; inhibition at 50 µM (HIV-1 protease [2]): 90.7%; inhibition at 100 µM (HIV-1 protease [2]): 105%; inhibition at 200 µM (HIV-1 protease [2]; read-out: HIV-1 Protease % Inhib, dose 200.000 uM): 107%
O=c1cc(O)c2ccccc2o1 [4-hydroxy-coumarin]								effect on HIV-1 replication and viral transmission (HIV-1): inhibitory effect
CCCC(c1ccccc1)c1c(O)c2ccccc2oc1=O (stereo not shown) [Example 10, 4-Hydroxy-3-(1-phenylbutyl)-coumarin]								inhibition at 100 µM [1]: 0%; inhibition at 300 µM [1]: 57%; IC50 (HIV-1 protease [2]): 1710 nM; inhibition at 0.098 µM (HIV-1 protease [2]): < 10%; inhibition at 0.196 µM (HIV-1 protease [2]; read-out: HIV-1 Protease % Inhib, dose 0.196 uM): < 10%; inhibition at 0.78 µM (HIV-1 protease [2]): 33.2%; inhibition at 1.56 µM (HIV-1 protease [2]): 53.6%; inhibition at 12.5 µM (HIV-1 protease [2]): 91.5%; inhibition at 25 µM (HIV-1 protease [2]): 88%; inhibition at 50 µM (HIV-1 protease [2]): 102%; inhibition at 100 µM (HIV-1 protease [2]): 109%
Cc1cn([C@H]2C[C@H](N=[N+]=[N-])[C@@H](CO)O2)c(=O)[nH]c1=O [AZT, 3'-azido-3'-deoxy-thymidine]								clinical effect in HIV infection/AIDS (HIV; humans): decrease the mortality and frequency of opportunistic infections associated with AIDS
CC(C)CC(=O)N[C@H](C(=O)N[C@H](C(=O)N[C@@H](CC(C)C)[C@@H](O)CC(=O)N[C@@H](C)C(=O)N[C@@H](CC(C)C)[C@@H](O)CC(=O)O)C(C)C)C(C)C [Pepstatin A] (Isovaleryl-VV[Sta]A[Sta]-OH)								HIV protease inhibition (HIV protease): inhibitor of HIV-I protease
Nc1cccc(C(c2c(O)c3c(oc2=O)CCCCCC3)C2CC2)c1 (stereo not shown) [Example 164, 3-[(3-Aminophenyl)cyclopropylmethyl]-5,6,7,8,9,10-hexahydro-4-hydroxy-2H-cycloocta[b]pyran-2-one]	78 nM	14.6%	46.2%	87.3%	99.7%	102%		
NC(=O)c1ccc(S(=O)(=O)Nc2cccc(C(c3c(O)c4c(oc3=O)CCCCCC4)C3CC3)c2)cc1 (stereo not shown) [Example 365A, 4-[[[3-[Cyclopropyl(5,6,7,8,9,10-hexahydro-4-hydroxy-2-oxo-2H-cycloocta[b]pyran-3-yl)methyl]phenyl]amino]sulfonyl]-benzamide]	1.86 nM	106%	115%	116%	117%	116%	83.8%	
CC(C)CC1CCCCCc2c1oc(=O)c(C(c1ccccc1)C1CC1)c2O (stereo not shown) [Example 131, 3-(Cyclopropyl-phenyl-methyl)-4-hydroxy-10-isobutyl-5,6,7,8,9,10-hexahydro-cycloocta[b]pyran-2-one]	30 nM	74.2%	98.7%	112%	116%	106%	30.7%	
CC(C)C(c1cccc(NS(=O)(=O)c2cn(C)cn2)c1)c1c(O)c2c(oc1=O)CCCCCC2 (stereo not shown) [Example 374, N-[3-[1-(5,6,7,8,9,10-Hexahydro-4-hydroxy-2-oxo-2H-cycloocta[b]pyran-3-yl)-2-methylpropyl]phenyl]-1-methyl-1H-imidazole4-sulfonamide]	1.3 nM and 0.72 nM	121%	131%	125%	129%	128%	121%	
O=c1oc2c(c(O)c1C(c1ccccc1)C1CC1)CCCCCC2CC1CC1 (stereo not shown) [Example 121, 10-Cyclopropylmethyl-3-(cyclopropyl-phenyl-methyl)-4-hydroxy-5,6,7,8,9,10-hexahydro-cycloocta[b]pyran-2-one]	24 nM	74.9%	99.5%	106%	108%	109%	37.1%	
CC(=O)Nc1ccc(S(=O)(=O)Nc2cccc(C(c3c(O)c4c(oc3=O)CCCCCC4)C3CC3)c2)cc1 (stereo not shown) [Example 307, N-[4-[[[3-[Cyclopropyl(5,6,7,8,9,10-hexahydro-4-hydroxy-2-oxo-2H-cycloocta[b]pyran-3-yl)methyl]phenyl]amino]sulfonyl]phenyl]-acetamide]	7.6 nM	66.5%	85.2%	97.8%	105%	90.3%	19.5%	
CC(C)CCC1CCCCc2c1oc(=O)c(C(c1ccccc1)C1CC1)c2O (stereo not shown) [Example 184, 3-(Cyclopropylphenylmethyl)-6,7,8,9-tetrahydro4-hydroxy-9-(3-methylbutyl)-cyclohepta[b]pyran-2(5H)-one]	46 nM	18%	60.7%	86%	96.5%	93.1%		
O=C(NCc1ccc(C(c2c(O)c3c(oc2=O)CCCCCC3)C2CC2)o1)OCc1ccccc1 (stereo not drawn) [Example 388, 3-(α-Cyclopropyl (5-(N-carbobenzoxy)aminomethyl)furfur-2-yl)-4-hydroxy-5,6,7,8,9,10-hexahydrocycloocta[b]pyran-2-one]	21.7 nM	42.8%	76%	96.5%	98.2%	93.7%		
Cn1cnc(S(=O)(=O)Nc2cccc([C@@H](c3c(O)c4c(oc3=O)CCCCCC4)C3CC3)c2)c1 [Example 254, (-)-N-[3-[Cyclopropyl(5,6,7,8,9,10-hexahydro-4-hydroxy-2-oxo-2H-cycloocta[b]pyran-3-yl)methyl]phenyl]-1-methyl-1H-imidazole-4-sulfonamide]	0.65 nM							HIV-1 Protease % Inhib (HIV-1 protease [2]; dose 0.123 uM): 82.28%; HIV-1 Protease % Inhib (HIV-1 protease [2]; dose 0.370 uM): 97.98%; HIV-1 Protease % Inhib (HIV-1 protease [2]; dose 1.100 uM): 107.75%; HIV-1 Protease % Inhib (HIV-1 protease [2]; dose 3.300 uM): 111.05%; HIV-1 Protease % Inhib (HIV-1 protease [2]; dose 10.000 uM): 112.1%; HIV-1 Protease % Inhib (HIV-1 protease [2]; dose 30.000 uM): 103.1%
O=C(NCc1ccc(S(=O)(=O)Nc2cccc(C(c3c(O)c4c(oc3=O)CCCCCC4)C3CC3)c2)s1)c1ccccc1 (stereo not shown) [Example 296, N-[[5-[[[3-[Cyclopropyl(5,6,7,8,9,10-hexahydro-4-hydroxy-2-oxo-2H-cycloocta[b]pyran-3-yl)methyl]phenyl]amino]sulfonyl]-2-thienyl]methyl]-benzamide]	24 nM	74.8%	95.5%	104%	108%	114%	14.6%	
